According to patent US10112918B2, “15-oxospiramilactone derivatives, preparation method and uses thereof” (Kunming Institute of Botany, The Chinese Academy of Sciences, priority 2013, dated 2018):
Read-outs that look alike come from different tables or passages of the source.

Experiments:
Assay type in all cases: cell-based
[1] = system: Wnt signaling pathway (Top-Flash reporter gene); assay: Top-Flash Wnt reporter gene assay in HEK293T cells with Wnt3a conditioned medium; settings: Homo sapiens, HEK-293T, 6 h, 6 h
Procedure: HEK293T cells were cultured in DMEM containing 10% fetal bovine serum (Invitrogen) at 37° C., 5% CO2. The cells were passaged every other day. The density was retained at 70˜80% during passage. L cell line (CRL-2647, purchased from the gene bank of ATCC, the US) and the control cell line (CRL-2648, purchased from ATCC, US), which stably secreted mouse Wnt3a protein, were cultured in DMEM containing 50 ug/ml G418 and 10% fetal bovine serum, at 37° C., 5% CO2. When the cells grew to a density of about 70%, the medium was replaced with DMEM containing 10% fetal bovine serum. After continuous culture for 4 days, the culture was collected and centrifuged, and the supernatant was kept so that the Wnt conditioned medium was obtained. After titration assay, the conditioned medium was quick-frozen in liquid nitrogen, and placed at −80° C. for long-term storage, so that the titer was kept unchanged.
The cells were seeded to a 48-well plate at a density of […] cells per well, and transfected 20 h later. The reagents for plasmid transfection were calculated based on the amount in each well of the 48-well plate as following: the total amount of plasmid was 125 ng/well; the plasmid was first added to a serum-free medium (25 μL/well) and mixed well; PLUS reagent (Invitrogen) was then added in an amount of 0.5 μL/well and mixed well, then stood for 15 min; Lipofectamine (Invitrogen) liposome was added in an amount of 0.5 μL/well to serum-free DMEM medium (25 μL/well), and then mixed with the solution containing the plasmid and the PLUS, and stood for 15 min. The cells were cultured in serum-free DMEM medium (100 μL/well), and the final mixture of plasmid, PLUS and Lipofectamine were added to the cells. After incubation for 3 h, the transfection was stopped by the medium containing 10% fetal bovine serum (200 μL/well).
The HEK293T cells used for activity assay of the report gene were transfected by the method as shown in 2). Activity assay of Wnt reporter gene: the amount of plasmid for transfection was 5 ng/well for TOP-flash and 5 ng/well for GFP plasmid as internal standard, with lacZ added to reach a total amount of 125 ng/well. […] After treating for 6 h, Boehringer Mannheim Luci-ferase Assay Kit was used to lyse cells (200 μL/well). 50 μL from each well was pipetted into a 96-well plate. The indensity of GFP protein in the cell lysate was measured by fluorimeter FL600 (BIO-TEK Inc. Winooski, Vt.), and taken as internal standard for cell transfection efficiency. 10 μL substrate of luciferase was then added to each well, and the activity of luciferase was measured by Micro Lumate Plus (Perkin Elmer Inc. Wellesley, Mass.) luminometer. Finally, GFP indensity was used as internal standard to calibrate the activity of luciferase, i.e. the activity of Wnt reporter gene.
Calculation of IC50 (taking the calculation of IC50 of the Wnt signaling pathway for example): background (the activity as measured in the groups treated with a conditioned medium containing DMSO only) was subtracted from the reporter gene activity as measured in the groups treated by Wnt3a conditioned medium with or without the compound to be tested at different concentrations; and the obtained value was defined as the activity of the reporter gene induced by Wnt or the residual activity of the reporter gene after adding the compound to be tested. The residual activity was normalized by the activity induced by Wnt to get the relative residual activity. Then combine with the concentrations of the compound to be tested to plot a linear graph, and a dose-effect curve was fitted based on 4-parameter logistic fit. IC50 of the Wnt signaling pathway is determined as the concentration at which the relative residual activity is 0.5.

[2] = system: A-549 (Human lung adenocarcinoma cells); assay: MTT inhibition of tumor cell growth, A-549; settings: Homo sapiens
Procedure: (§1) 1. Inoculating cells: the culture medium DMEM or RMPI1640 containing 10% fetal bovine serum was used to prepare a single cell suspension, and the cell suspension was inoculated to a 96-well plate at 5000-10000 cells per well (100 μl for each well); Adherent cells were inoculated and cultured for 12 h in advance. HL-60 (human promyelocytic leukemia cells), SMMC-7721 (human hepatoma cells), A-549 (Human lung adenocarcinoma cells), MCF-7 (human breast cancer cells), SW-480 (human colon cancer cells) were purchased from the Cell Bank of the Chinese Academy of Sciences, Shanghai.
(§2) 2. The solution of the compound to be tested (40 μM for primary screening; 5 concentrations were set for gradient re-screening for the compounds which achieve about 50% inhibition of tumor cell growth at 40 μM) was added, the final volume of each well was 200 μl, and triplicate wells were set for each test.
(§3) 3. Coloration: After culturing at 37° C. for 48 h, MTT solution (20 μl) was added to each well. After incubation for another 4 h, the culture was stopped. The supernatant in each well was pipetted and discarded, and 200 μl SDS solution (10%) was added to each well. Incubation was performed overnight (at 37° C.), to completely dissolve the crystal.
(§4) 4. Colorimetric assay: ELISA Reader (Bio-Rad 680) was used to obtain the light absorption for each well at a wavelength of 595 nm, the results were recorded. A cell growth curve was plotted with the concentration as abscissa and the cell survival percentage as ordinate. The two-point method (Reed and Muench method) was used to calculate the IC50 of the compound.

[3] = system: HL-60 (human promyelocytic leukemia cells); assay: MTT inhibition of tumor cell growth, HL-60; settings: Homo sapiens
Procedure: as §1, §2, §3, §4

[4] = system: MCF-7 (human breast cancer cells); assay: MTT inhibition of tumor cell growth, MCF-7; settings: Homo sapiens
Procedure: as §1, §2, §3, §4

[5] = system: SMMC-7721 (human hepatoma cells); assay: MTT inhibition of tumor cell growth, SMMC-7721; settings: Homo sapiens
Procedure: as §1, §2, §3, §4

[6] = system: SW-480 (human colon cancer cells); assay: MTT inhibition of tumor cell growth, SW-480; settings: Homo sapiens
Procedure: as §1, §2, §3, §4

[7] = Table 7 (second), derivatives modified on 7-hydroxyl of S-3, HEK293T, Wnt3a conditioned medium, read-out: IC50 (μM), inhibitory activity on the Wnt signaling pathway
[8] = A549, 48 h, Table 1, 7-hydroxy derivatives of S-3
[9] = HL-60, 48 h, Table 1, 7-hydroxy derivatives of S-3
[10] = MCF7, 48 h, Table 1, 7-hydroxy derivatives of S-3
[11] = SMMC-7721, 48 h, Table 1, 7-hydroxy derivatives of S-3
[12] = SW480, 48 h, Table 1, 7-hydroxy derivatives of S-3, read-out: IC50 SW-480
[13] = A549, 48 h, Table 2, derivatives having potential Michael reaction acceptor
[14] = HL-60, 48 h, Table 2, derivatives having potential Michael reaction acceptor
[15] = MCF7, 48 h, Table 2, derivatives having potential Michael reaction acceptor
[16] = SMMC-7721, 48 h, Table 2, derivatives having potential Michael reaction acceptor
[17] = SW480, 48 h, Table 2, derivatives having potential Michael reaction acceptor, read-out: IC50 SW-480
[18] = Table 9, HEK293T, Wnt3a conditioned medium, read-out: IC50(μM), inhibitory activity on the Wnt signaling pathway

Row | IC50 [1, 7] | IC50 [2, 8] | IC50 [3, 9] | IC50 [4, 10] | IC50 [5, 11] | IC50 [6, 12] | IC50 [2, 13] | IC50 [3, 14] | IC50 [4, 15] | IC50 [5, 16] | IC50 [6, 17] | IC50 [1, 18] | Compound | also measured
1 | 18.9 ± 2.48 µM | 2.14 µM | 4.01 µM | 3.11 µM | 3.05 µM | 2.22 µM |  |  |  |  |  |  | C=C1C(=O)C23CC[C@H]1CC2[C@@]12CCC[C@@](C)(COC1=O)C2C[C@H]3OC(=O)c1ccco1 (stereo partly drawn) [Compound 1n] | 
2 |  |  |  |  |  |  |  |  |  |  |  |  | C=C1C(=O)C23CC[C@H]1CC2[C@@]12CCC[C@@](C)(COC1=O)C2C[C@H]3OC(=O)c1cccs1 (stereo partly drawn) [Compound 1o] | IC50 ([1]; read-out: IC50 (μM), inhibitory activity on the Wnt signaling pathway): 9.15 ± 1.14 µM; IC50 ([2]; A549, Table 1, 7-hydroxy derivatives of S-3, 48 h): 0.49 µM; IC50 ([3]; HL-60, Table 1, 7-hydroxy derivatives of S-3, 48 h): 0.84 µM; IC50 ([4]; MCF7, Table 1, 7-hydroxy derivatives of S-3, 48 h): 1.26 µM; IC50 ([5]; SMMC-7721, Table 1, 7-hydroxy derivatives of S-3, 48 h): 0.6 µM; IC50 ([6]; SW480, Table 1, 7-hydroxy derivatives of S-3, 48 h, read-out: IC50 SW-480): 0.56 µM
3 | 18.6 ± 1.26 µM | 0.79 µM | 1.24 µM | 3.4 µM | 1.79 µM | 2.16 µM |  |  |  |  |  |  | C=C1C(=O)C23CC[C@H]1CC2[C@@]12CCC[C@@](C)(COC1=O)C2C[C@H]3OC(=O)/C=C/c1ccccc1 (stereo partly drawn) [Compound 1p] | 
4 | 15.1 ± 2.89 µM | 4.17 µM | 5.15 µM | 3.82 µM | 10.5 µM | 3.43 µM |  |  |  |  |  |  | C=C1C(=O)C23CC[C@H]1CC2[C@@]12CCC[C@@](C)(COC1=O)C2C[C@H]3OS(C)(=O)=O (stereo partly drawn) [Compound 1q] | 
5 | 8.92 ± 0.98 µM | 0.49 µM | 0.58 µM | 2.06 µM | 0.57 µM | 1.17 µM |  |  |  |  |  |  | C=C1C(=O)C23CC[C@H]1CC2[C@@]12CCC[C@@](C)(COC1=O)C2C[C@H]3OS(=O)(=O)Cc1ccccc1 (stereo partly drawn) [Compound 1r] | 
6 | 12.4 ± 1 µM | 2.69 µM | 3.53 µM | 4.18 µM | 3.83 µM | 2.89 µM |  |  |  |  |  |  | C=C1C(=O)C23CC[C@H]1CC2[C@@]12CCC[C@@](C)(COC1=O)C2C[C@H]3OS(=O)(=O)c1ccccc1 (stereo partly drawn) [Compound 1s] | 
7 | 14.4 ± 2.28 µM | 2.94 µM | 3.36 µM | 3.19 µM | 3.64 µM | 1.91 µM |  |  |  |  |  |  | C=C1C(=O)[C@]23CC[C@H]1CC2[C@@]12CCC[C@@](C)(COC1=O)C2C[C@H]3OS(=O)(=O)c1ccc(Cl)cc1 (stereo partly drawn) [Compound 1t] | 
8 | > 60 µM | 6.69 µM | 6.63 µM | 9.05 µM | 23.4 µM | 18.4 µM |  |  |  |  |  |  | C=C1C(=O)[C@]23CC[C@H]1CC2[C@@]12CCC[C@@](C)(COC1=O)C2C[C@H]3S(=O)(=O)c1ccccc1[N+](=O)[O-] (stereo partly drawn) [Compound 1u] | 
9 | > 60 µM | 16.6 µM | 9.64 µM | 11.1 µM | 26.9 µM | 14.7 µM |  |  |  |  |  |  | C=C1C(=O)[C@]23CC[C@H]1CC2[C@@]12CCC[C@@](C)(COC1=O)C2C[C@@H]3S(=O)(=O)c1ccccc1[N+](=O)[O-] (stereo partly drawn) [Compound 1v] | 
10 | 12.1 ± 1.88 µM |  |  |  |  |  | 3.16 µM | 4.56 µM | 4.61 µM | 4.72 µM | 3.74 µM |  | C=C1C(=O)[C@]23CC[C@H]1CC2[C@@]12CCC[C@@](C)(COC1=O)C2CC3=O (stereo partly drawn) [Compound 7] | IC50 ([1]; Table 8, HEK293T, Wnt3a conditioned medium, read-out: IC50 (μM), inhibitory activity on the Wnt signaling pathway): 12.1 µM; IC50 ([6]; SW480, 48 h, Table 6, 7-carbonyl derivatives, read-out: IC50 SW-480, 7-carbonyl derivatives): 2.63 µM
11 |  |  |  |  |  |  |  |  |  |  |  | 4.09 ± 0.07 µM | C=C1C(=O)[C@@]23CC[C@@H](CC2[C@@]24CCC[C@@](C)(COC2=O)C14)C(=C)C3=O (stereo partly drawn) [Compound 8] | IC50 ([2]; A549, 48 h, Table 5, derivatives having double Michael reaction acceptor): 0.59 µM; IC50 ([3]; HL-60, 48 h, Table 5, derivatives having double Michael reaction acceptor): 2.02 µM; IC50 ([4]; MCF7, 48 h, Table 5, derivatives having double Michael reaction acceptor): 0.96 µM; IC50 ([5]; SMMC-7721, 48 h, Table 5, derivatives having double Michael reaction acceptor): 0.72 µM; IC50 ([6]; SW480, 48 h, Table 5, derivatives having double Michael reaction acceptor, read-out: IC50 SW-480): 0.66 µM; IC50 ([6]; SW480, 48 h, Table 6, double Michael reaction acceptor derivatives, read-out: IC50 SW-480, derivatives having double Michael reaction acceptor): 0.45 µM
12 |  |  |  |  |  |  | 2.8 µM | 4.43 µM | 3.55 µM | 3.53 µM | 7.77 µM | 8.56 ± 1.15 µM | C=C1C(=O)[C@]23CC[C@H]1CC2[C@@]12CCC[C@@](C)(COC1=O)C2[C@H](CN1CCOCC1)C3=O (stereo partly drawn) [Compound 9] | 
13 |  |  |  |  |  |  | 0.83 µM | 3.41 µM | 1.18 µM | 0.71 µM | 1.03 µM | 9.54 ± 1.34 µM | C=C1C(=O)[C@]23CC[C@H]1CC2[C@@]12CCC[C@@](C)(COC1=O)C2C(CN(C)C)C3=O (stereo partly drawn) [Compound 10] | 
14 |  |  |  |  |  |  | 2.44 µM | 3.85 µM | 3.94 µM | 2.48 µM | 2.8 µM | 6.89 ± 0.27 µM | C=C1C(=O)[C@]23CC[C@H]1CC2[C@@]12CCC[C@@](C)(COC1=O)C2[C@H](CO)C3=O (stereo partly drawn) [Compound 11] | 
15 |  |  |  |  |  |  | 3.14 µM | 4.69 µM | 4.83 µM | 2.41 µM | 3.71 µM | 19.8 ± 1.34 µM | C=C1C(=O)[C@]23CC[C@H]1CC2[C@@]12CCC[C@@](C)(COC1=O)C2[C@H](SC)C3=O (stereo partly drawn) [Compound 12] | 
16 |  |  |  |  |  |  | 0.73 µM | 3.86 µM | 1.51 µM | 0.83 µM | 1.21 µM | 16.5 ± 1.16 µM | C=C1C(=O)[C@]23CC[C@H]1CC2[C@@]12CCC[C@@](C)(COC1=O)C2[C@H](Br)C3=O (stereo partly drawn) [Compound 13] | 
